Source: publication PMC7541926 (Preventive Nutrition and Food Science, 2020)

Assays:
[1] = biological target: T1, Saccharomyces cerevisiae α-glucosidase (Saccharomyces cerevisiae, UniProt P53341); test: Enzyme assay for α-glucosidase inhibitory activity
[2] = biological target: T1, Saccharomyces cerevisiae α-glucosidase; test: Enzyme kinetics of α-glucosidase inhibitory activity; settings: Lineweaver-Burk double reciprocal plot

T1 sequence (P53341 whole entry): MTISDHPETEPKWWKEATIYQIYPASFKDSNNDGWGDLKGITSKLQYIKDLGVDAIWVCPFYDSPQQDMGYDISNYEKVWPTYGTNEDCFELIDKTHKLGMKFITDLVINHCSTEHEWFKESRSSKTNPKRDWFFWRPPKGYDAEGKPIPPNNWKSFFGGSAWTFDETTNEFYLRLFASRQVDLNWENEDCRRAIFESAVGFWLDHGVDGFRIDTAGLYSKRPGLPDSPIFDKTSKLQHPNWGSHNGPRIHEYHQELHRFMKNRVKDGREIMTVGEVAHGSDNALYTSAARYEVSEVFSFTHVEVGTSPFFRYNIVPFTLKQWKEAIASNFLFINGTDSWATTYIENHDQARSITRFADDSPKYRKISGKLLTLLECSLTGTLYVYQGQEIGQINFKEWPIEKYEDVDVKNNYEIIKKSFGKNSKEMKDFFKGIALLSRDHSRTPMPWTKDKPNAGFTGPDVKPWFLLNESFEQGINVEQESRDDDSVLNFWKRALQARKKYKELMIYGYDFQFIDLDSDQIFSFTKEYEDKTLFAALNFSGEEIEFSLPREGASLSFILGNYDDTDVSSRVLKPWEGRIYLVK

SMILES | IC50 [1] [µM] | Mode of inhibition [2]
Oc1ccc(-c2[o+]c3cc(O)cc(O)c3cc2O)cc1 [Pelargonidin, pelargonidin chloride] | 50.3 ± 4 | Mixed type, close to non-competitive
COc1cc(-c2[o+]c3cc(O)cc(O)c3cc2O)cc(OC)c1O [Malvidin, malvidin chloride] | 54.7 ± 2.14 | Mixed type, close to non-competitive
COc1cc(-c2[o+]c3cc(O)cc(O)c3cc2O)cc(O)c1O [Petunidin, petunidin chloride] | 30.8 ± 1.17 | Competitive
C[C@H]1O[C@H](O[C@H]2[C@H](O)[C@@H](O)[C@@H](O[C@H]3[C@H](O)[C@@H](O)C(O)O[C@@H]3CO)O[C@@H]2CO)[C@H](O)[C@@H](O)[C@@H]1N[C@H]1C=C(CO)[C@@H](O)[C@H](O)[C@H]1O (some centres unmarked) [Acarbose, acarbose, reference compound] | – | Competitive

Continued, values first:

IC50 [1] [µM] | Mode of inhibition [2] | SMILES
17 ± 1.35 | Mixed type, close to non-competitive | Oc1cc(O)c2cc(O)c(-c3ccc(O)c(O)c3)[o+]c2c1 [Cyanidin, cyanidin chloride]
4.11 ± 0.49 | Mixed type, close to non-competitive | Oc1cc(O)c2cc(O)c(-c3cc(O)c(O)c(O)c3)[o+]c2c1 [Delphinidin, delphinidin chloride]
